For orientation: EC50 means the concentration at which the effect is half-maximal. Higher therefore signals a need for much substance.

The target of one assay is T1, hNLRP3 inflammasome (Homo sapiens, UniProt Q96P20).
T1 construct: endogenous in cells; host or cells: THP-1 cells, PMA-differentiated
The assay can be described thus: Agonistic effect on the expression of IL-1β in THP-1 cells after PMA-induced differentiation (HTRF). Type of assay: cell-based. Conditions: IL-1β level, PMA-differentiated THP-1 cells, 6 hours. In outline: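 THP-1 cells differentiated with 1 μM PMA for 24 h, then replated at 1×10^5 cells/well in RPMI 1640 with 2% FBS. Compounds added for 6 h at 37 °C, 5% CO2. Supernatant IL-1β measured by HTRF; EC50 from four-parameter variable-slope fit.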

For the next assay, the target named is T2, hTLR7 (Homo sapiens, UniProt Q9NYK1).
T2 construct: host or cells: HEK-hTLR7-NF-κB-Luciferase cells
T2 sequence (Q9NYK1 27-1049): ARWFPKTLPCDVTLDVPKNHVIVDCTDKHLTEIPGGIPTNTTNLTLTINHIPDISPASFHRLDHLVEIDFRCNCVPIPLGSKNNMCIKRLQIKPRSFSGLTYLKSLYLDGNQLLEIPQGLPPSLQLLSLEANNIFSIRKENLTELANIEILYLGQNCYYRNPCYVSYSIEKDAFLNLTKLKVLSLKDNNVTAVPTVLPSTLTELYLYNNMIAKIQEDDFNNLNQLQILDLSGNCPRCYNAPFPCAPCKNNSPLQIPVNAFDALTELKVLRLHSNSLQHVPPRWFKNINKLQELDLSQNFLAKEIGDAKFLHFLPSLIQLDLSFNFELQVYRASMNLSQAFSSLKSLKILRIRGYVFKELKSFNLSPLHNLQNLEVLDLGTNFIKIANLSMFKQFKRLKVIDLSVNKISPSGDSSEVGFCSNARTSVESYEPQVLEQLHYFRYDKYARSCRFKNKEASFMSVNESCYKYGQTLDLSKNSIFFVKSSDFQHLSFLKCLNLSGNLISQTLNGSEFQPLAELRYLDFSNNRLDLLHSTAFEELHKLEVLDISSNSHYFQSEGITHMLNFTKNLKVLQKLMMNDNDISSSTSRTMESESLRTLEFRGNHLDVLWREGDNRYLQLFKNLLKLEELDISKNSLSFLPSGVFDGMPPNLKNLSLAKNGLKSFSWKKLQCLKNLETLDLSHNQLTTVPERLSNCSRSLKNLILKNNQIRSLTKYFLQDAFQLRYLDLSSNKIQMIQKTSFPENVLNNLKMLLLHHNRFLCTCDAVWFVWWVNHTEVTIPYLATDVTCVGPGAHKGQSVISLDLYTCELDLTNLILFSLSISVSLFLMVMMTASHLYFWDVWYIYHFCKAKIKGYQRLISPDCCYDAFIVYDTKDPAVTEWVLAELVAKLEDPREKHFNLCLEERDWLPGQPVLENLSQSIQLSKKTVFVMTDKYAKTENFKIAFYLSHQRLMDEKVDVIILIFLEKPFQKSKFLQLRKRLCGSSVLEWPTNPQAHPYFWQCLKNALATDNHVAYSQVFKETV
The assay can be described thus: Agonistic effect on hTLR7, HEK-hTLR7-NF-κB-Luciferase reporter cells. Conditions: 16 hours. The assay is classed as cell-based. The essentials: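 HEK cells carrying human TLR7 and NF-κB-luciferase reporter, […] in DMEM with 10% FBS, exposed to compound for 16 h at 37 °C, 5% CO2; serves as specificity counterscreen to NLRP3 activity. Luminescence (RLU) after 5 min with luciferase reagent; EC50 by four-parameter variable-slope fit.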
Background: In a reporter assay the amount or activity of a reporter protein is the signal.

T1 sequence (Q96P20 whole entry): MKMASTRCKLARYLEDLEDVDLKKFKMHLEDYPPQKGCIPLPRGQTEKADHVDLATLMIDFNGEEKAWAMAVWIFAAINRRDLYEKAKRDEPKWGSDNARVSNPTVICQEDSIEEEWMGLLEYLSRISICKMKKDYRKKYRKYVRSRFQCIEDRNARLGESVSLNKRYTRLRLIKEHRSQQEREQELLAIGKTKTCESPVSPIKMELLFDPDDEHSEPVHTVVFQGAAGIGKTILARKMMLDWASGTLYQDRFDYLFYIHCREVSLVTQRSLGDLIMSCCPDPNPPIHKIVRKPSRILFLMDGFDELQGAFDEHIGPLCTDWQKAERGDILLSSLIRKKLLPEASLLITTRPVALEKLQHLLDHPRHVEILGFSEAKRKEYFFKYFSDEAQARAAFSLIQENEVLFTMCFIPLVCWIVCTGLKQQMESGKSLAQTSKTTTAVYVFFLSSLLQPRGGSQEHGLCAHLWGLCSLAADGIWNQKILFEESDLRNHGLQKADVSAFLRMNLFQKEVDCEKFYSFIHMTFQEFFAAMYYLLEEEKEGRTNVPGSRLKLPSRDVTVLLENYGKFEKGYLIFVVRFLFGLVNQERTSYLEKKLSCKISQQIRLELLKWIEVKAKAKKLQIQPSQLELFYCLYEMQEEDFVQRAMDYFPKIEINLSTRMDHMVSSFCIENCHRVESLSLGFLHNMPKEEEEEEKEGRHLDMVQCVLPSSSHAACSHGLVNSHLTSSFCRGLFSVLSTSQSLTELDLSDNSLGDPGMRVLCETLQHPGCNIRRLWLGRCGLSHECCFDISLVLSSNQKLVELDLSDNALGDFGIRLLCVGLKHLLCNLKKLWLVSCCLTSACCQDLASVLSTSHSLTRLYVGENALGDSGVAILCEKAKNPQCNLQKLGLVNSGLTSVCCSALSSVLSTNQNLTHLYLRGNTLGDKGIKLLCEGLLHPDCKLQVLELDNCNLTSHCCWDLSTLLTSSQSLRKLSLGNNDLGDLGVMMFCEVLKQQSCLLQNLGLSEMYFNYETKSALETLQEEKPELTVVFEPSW

In the case of `Nc1cc(N2CCN(c3ccccc3)CC2)c2sc(-c3ccn[nH]3)cc2n1` [Compound 174], the EC50 on hNLRP3 inflammasome was 0.34 µM; at hTLR7, above 100000 nM.

In the case of `Nc1cc(N2CCNCC2)c2sc(-c3ccn[nH]3)cc2n1` [Compound 175], the EC50 at hNLRP3 inflammasome is 0.34 µM; on hTLR7 it was above 100000 nM.

For `Nc1cc(N2CC3CC(C2)N3)c2sc(-c3ccn[nH]3)cc2n1` [Compound 176], the 50% effective concentration (EC50) on hNLRP3 inflammasome is 0.23 µM; on hTLR7 it was above 100000 nM.

In the case of `C[C@@H]1COCCN1c1cc(N)nc2cc(-c3ccn[nH]3)sc12` [Compound 177], the results for the EC50 on hNLRP3 inflammasome and at hTLR7 were 0.03 µM and above 100000 nM, respectively.

Turning to `Nc1cc(N2CCN(C=O)CC2)c2sc(-c3ccn[nH]3)cc2n1` [Compound 178], the EC50 on hNLRP3 inflammasome is 0.17 µM; at hTLR7 it was above 100000 nM.

As for `Nc1cc(N2CC3CC(C2)N3C=O)c2sc(-c3ccn[nH]3)cc2n1` [Compound 179], the EC50 is 0.05 µM on hNLRP3 inflammasome and above 100000 nM on hTLR7.

Consider `COC1CCN(c2cc(N)nc3cc(-c4ccn[nH]4)sc23)C1` (stereo not drawn) [Compound 180], for which the 50% effective concentration (EC50) was 0.01 µM at hNLRP3 inflammasome and above 100000 nM at hTLR7.

With `Nc1cc(N2CC[C@@H](O)C2)c2sc(-c3ccn[nH]3)cc2n1` [Compound 181], the EC50 is 0.009 µM at hNLRP3 inflammasome and above 100000 nM on hTLR7.

Turning to `Nc1cc(N[C@H]2C[C@H]2CO)c2sc(-c3ccn[nH]3)cc2n1` [Compound 182s], the EC50 on hNLRP3 inflammasome was 0.11 µM; at hTLR7 it was above 100000 nM.

Source of the values: patent US20220056043A1, “NITROGEN-CONTAINING FUSED CYCLIC COMPOUND, PREPARATION METHOD THEREFOR AND USE THEREOF” (SICHUAN KELUN-BIOTECH BIOPHARMACEUTICAL CO., LTD., priority 2019, published 2022).
